Measurements reported in patent publication US11578072B2, “Spiro-lactam NMDA receptor modulators and uses thereof” (Aptinyx Inc., priority 2018, dated 2023).

Columns and labels:
[1] = molecular target: T1, NMDAR2B (Homo sapiens, UniProt Q13224); test: NMDAR agonist assay, [3H]MK-801 binding, NMDAR2B expressing HEK cell membranes; type: biochemical; settings: 50 μM glutamate; for EC50: read-out: NMDAR2B B: log EC50 (converted)
T1 construct: expressed in transfected cells; host or cells: HEK cells (membrane extract)
T1 sequence (Q13224 27-1484, species assumed, other chains not shown): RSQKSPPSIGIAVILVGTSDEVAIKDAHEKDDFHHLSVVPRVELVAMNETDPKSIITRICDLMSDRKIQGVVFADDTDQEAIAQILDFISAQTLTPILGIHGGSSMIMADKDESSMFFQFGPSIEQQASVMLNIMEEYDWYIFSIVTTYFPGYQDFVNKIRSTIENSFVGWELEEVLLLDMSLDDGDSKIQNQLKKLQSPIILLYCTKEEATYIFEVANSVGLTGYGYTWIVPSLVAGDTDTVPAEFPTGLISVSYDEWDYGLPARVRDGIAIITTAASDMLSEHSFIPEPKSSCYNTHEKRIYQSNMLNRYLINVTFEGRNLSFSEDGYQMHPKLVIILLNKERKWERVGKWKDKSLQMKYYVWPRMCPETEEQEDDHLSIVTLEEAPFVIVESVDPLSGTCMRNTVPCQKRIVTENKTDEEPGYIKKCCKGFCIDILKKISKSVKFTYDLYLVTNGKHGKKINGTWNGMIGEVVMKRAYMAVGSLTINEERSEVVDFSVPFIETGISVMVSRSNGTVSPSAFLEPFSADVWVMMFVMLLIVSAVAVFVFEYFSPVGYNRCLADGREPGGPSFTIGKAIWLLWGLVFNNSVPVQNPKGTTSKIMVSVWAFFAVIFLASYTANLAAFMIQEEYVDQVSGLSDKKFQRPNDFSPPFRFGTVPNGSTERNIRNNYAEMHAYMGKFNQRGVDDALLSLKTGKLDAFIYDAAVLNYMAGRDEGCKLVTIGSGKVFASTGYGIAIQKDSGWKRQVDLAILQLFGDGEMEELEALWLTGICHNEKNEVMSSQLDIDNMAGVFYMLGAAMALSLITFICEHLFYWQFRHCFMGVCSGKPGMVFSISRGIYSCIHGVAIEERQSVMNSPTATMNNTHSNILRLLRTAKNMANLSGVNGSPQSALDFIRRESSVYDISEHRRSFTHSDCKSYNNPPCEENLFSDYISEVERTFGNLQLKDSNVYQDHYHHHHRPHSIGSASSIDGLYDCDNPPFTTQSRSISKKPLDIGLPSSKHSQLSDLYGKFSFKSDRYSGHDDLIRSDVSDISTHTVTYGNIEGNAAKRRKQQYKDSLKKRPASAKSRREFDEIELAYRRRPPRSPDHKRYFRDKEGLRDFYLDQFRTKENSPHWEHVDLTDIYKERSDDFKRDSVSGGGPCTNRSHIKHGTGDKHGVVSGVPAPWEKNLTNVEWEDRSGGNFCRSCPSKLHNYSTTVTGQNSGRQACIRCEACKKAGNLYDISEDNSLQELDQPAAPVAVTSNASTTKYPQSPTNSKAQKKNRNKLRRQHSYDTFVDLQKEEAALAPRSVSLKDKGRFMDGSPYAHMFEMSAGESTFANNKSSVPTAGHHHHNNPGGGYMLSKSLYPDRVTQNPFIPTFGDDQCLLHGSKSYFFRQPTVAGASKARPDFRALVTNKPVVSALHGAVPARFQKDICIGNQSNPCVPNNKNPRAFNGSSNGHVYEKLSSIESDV
Method: (§1) Assays were conducted as described by Moskal et al., “GLYX-13: a monoclonal antibody-derived peptide that acts as an N-methyl-D-aspartate receptor modulator,” Neuropharmacology, 49, 1077-87, 2005. These studies were designed to determine if the test compounds act to facilitate NMDAR activation in NMDAR2A, NMDAR2B, NMDAR2C or NMDAR2D expressing HEK cell membranes as measured by increases in [3H]MK-801 binding.
(§2) In the assay, 300 μg of NMDAR expressing HEK cell membrane extract protein was preincubated for 15 minutes at 25° C. in the presence of saturating concentrations of glutamate (50 μM) and varying concentrations of test compound (1×10^−15M-1×10^−7M), or 1 mM glycine. Following the addition of 0.3 μCi of [3H]MK-801 (22.5 Ci/mmol), reactions were again incubated for 15 minutes at 25° C. (nonequilibrium conditions). Bound and free [3H]MK-801 were separated via rapid filtration using a Brandel apparatus.
(§3) In analyzing the data, the DPM (disintegrations per minute) of [3H]MK-801 remaining on the filter were measured for each concentration of test compound or for 1 mM glycine. The DPM values for each concentration of a ligand (N=2) were averaged. The baseline value was determined from the best fit curve of the DPM values modeled using the GraphPad program and the log(agonist) vs. response(three parameters) algorithm was then subtracted from all points in the dataset. The % maximal [3H]MK-801 binding was then calculated relative to that of 1 mM glycine: all baseline subtracted DPM values were divided by the average value for 1 mM glycine. The EC50 and % maximal activity were then obtained from the best fit curve of the % maximal [3H]MK-801 binding data modelled using the GraphPad program and the log(agonist) vs. response(three parameters) algorithm.
(§4) The tables below summarize the results for the wild type NMDAR agonists NMDAR2A, NMDAR2B, NMDAR2C, and NMDAR2D, and whether the compound is not an agonist (−), is an agonist (+), or is a strong agonist (++), where column A is based on the % maximal [3H]MK-801 binding relative to 1 mM glycine (−=0; <100%=+; and >100%=++); and column B is based on log EC50 values (0=−; >1×10^−9 M (e.g., −8)=+; and <1×10^−9 M (e.g., −10)++).

[2] = molecular target: T2, NMDAR2A (Homo sapiens, UniProt Q12879); test: NMDAR agonist assay, [3H]MK-801 binding, NMDAR2A expressing HEK cell membranes; type: biochemical; set-up: key to NMDAR2A B: log EC50: 0=−; >1×10^−9 M (e.g., −8)=+; <1×10^−9 M (e.g., −10)++; settings: 50 μM glutamate; for EC50: read-out: NMDAR2A B: log EC50 (converted)
T2 construct: expressed in transfected cells; host or cells: HEK cells (membrane extract)
T2 sequence (Q12879 23-1464, species assumed, other chains not shown): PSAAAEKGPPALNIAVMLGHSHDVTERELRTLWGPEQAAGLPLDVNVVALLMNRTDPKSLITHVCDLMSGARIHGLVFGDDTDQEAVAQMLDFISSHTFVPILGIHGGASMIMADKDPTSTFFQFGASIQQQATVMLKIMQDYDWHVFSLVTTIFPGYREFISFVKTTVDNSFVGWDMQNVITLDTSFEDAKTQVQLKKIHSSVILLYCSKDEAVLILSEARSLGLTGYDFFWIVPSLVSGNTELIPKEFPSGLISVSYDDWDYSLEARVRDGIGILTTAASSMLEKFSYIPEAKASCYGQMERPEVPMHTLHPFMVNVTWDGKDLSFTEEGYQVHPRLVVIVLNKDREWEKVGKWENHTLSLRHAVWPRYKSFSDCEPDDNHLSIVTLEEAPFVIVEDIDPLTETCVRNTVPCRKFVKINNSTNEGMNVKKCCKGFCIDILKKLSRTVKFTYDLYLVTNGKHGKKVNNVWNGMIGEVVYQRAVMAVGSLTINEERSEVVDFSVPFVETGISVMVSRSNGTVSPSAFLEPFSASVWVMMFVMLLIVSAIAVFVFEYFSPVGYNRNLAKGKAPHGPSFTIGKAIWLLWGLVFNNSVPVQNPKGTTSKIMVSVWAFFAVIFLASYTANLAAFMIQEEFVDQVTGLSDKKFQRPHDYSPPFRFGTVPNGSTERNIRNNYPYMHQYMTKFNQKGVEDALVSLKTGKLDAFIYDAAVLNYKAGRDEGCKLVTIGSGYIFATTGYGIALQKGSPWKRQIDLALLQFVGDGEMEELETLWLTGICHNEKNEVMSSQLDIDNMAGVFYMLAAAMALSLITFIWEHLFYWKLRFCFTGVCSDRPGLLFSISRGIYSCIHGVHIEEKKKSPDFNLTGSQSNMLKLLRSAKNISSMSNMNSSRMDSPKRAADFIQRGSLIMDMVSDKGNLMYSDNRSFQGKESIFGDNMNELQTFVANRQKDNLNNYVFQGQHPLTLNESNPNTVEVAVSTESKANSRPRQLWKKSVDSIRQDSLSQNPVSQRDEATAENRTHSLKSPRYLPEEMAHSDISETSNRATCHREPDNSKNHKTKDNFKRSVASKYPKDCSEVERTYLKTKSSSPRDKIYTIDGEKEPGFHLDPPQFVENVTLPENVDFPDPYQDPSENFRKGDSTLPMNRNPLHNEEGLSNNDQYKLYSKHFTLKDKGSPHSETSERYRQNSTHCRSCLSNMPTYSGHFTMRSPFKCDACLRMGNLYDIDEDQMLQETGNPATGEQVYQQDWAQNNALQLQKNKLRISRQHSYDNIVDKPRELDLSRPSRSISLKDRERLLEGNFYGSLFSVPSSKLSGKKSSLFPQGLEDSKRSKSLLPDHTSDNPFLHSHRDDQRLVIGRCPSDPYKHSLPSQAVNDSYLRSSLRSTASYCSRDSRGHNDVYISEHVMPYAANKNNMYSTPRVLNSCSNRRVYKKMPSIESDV
Method: as §1, §2, §3, §4

[3] = system: Sprague Dawley rats; test: Bennett nerve injury assay (mechanical analgesia, paw withdrawal threshold); type: in vivo; settings: 150 mg/kg PO
Method: The Bennett model of mechanical analgesia is used to assess the analgesic effects of compounds as measured by paw withdrawal threshold. Bennett G J, Xie Y K, “A peripheral mononeuropathy in rat that produces disorders of pain sensation like those seen in man,” Pain 33:87-107, 1988. […] Vehicle animals receive the surgery and then receive vehicle rather than test compound. Animals were tested 1 hr, 24 h and 1 wk post-test compound or vehicle administration.
Male 2-3 month old Sprague Dawley rats were used. Harlan was the supplier for all studies. Rats were housed in Lucite cages with aspen wood chip bedding, maintained on a 12:12 light:dark cycle (lights on at 5 AM), and given ad libitum access to Purina lab chow (USA) and tap water throughout the study.
Rats were anesthetized using inhaled isoflurane (2.5%). Sciatic nerve chronic constriction nerve injury surgery was performed as previously described (Bennett and Xie, 1988). An incision (˜1.5 cm in length) was made with a scalpel blade dorsally through skin on the right hind limb, parallel and posterior to femur. Using a small pointed hemostat, the biceps femoris and gluteus superficialis muscles were separated. Using curved blunt forceps, the common sciatic nerve was isolated and exposed. For the mechanical analgesia studies, the whole sciatic nerve was ligated. Using hemostats/forceps and chromic gut (5-0), the nerve was loosely ligated with a square knot; 3 ligatures, 1 mm apart were placed on the nerve. […] Testing occurred approximately 2 weeks post-surgery.
During testing, rats were acclimated to the surface of a suspended wire mesh grid (1 cm×1 cm, with the wire being 0.3 cm in diameter) for 15-20 min. Starting from the smallest, each Von Frey filament was pressed perpendicularly to the plantar surface of the affected (ipsilateral) hind paw until slightly bent and then held for 6 second. If an obvious hind paw withdrawal or a flinching behavior immediately after the withdrawal of the filament was not observed, the next larger filament was used in the same manner. In case of a response, a lower filament was used. This was repeated until six responses were collected.
For all studies, animals were baselined prior to study start to test for allodynia (defined as a paw withdrawal threshold under 5). A subset of animals was tested with gabapentin (150 mg/kg, PO) to ensure at least 50% analgesia. Once it was confirmed animals were ready for study initiation, animals were balanced across groups. All study investigators were blind to treatment conditions. Animals were dosed with 0.1, 1 or 10 mg/kg of test compound via oral gavage (PO), control sets of animals were dosed with gabapentin (150 mg/kg, PO) or vehicle (0.5% Na-CMC in 0.9% sterile saline, PO). Testing occurred 1 h post-dosing with animals retested 24 hrs and 1 week post-dosing. The percent analgesia calculations for each animal were made using the following equation: % analgesia=[(log(x)−y)/((log (z)−y)]*100, where x=the paw withdrawal threshold for the drug-treated animal in grams, y=the average of the log(x) values for the vehicle treated group, and z=the paw withdrawal threshold for naïve animals in grams (historical value of 15 used). The results for Compound AD, where the percentage of analgesia is measured at 1 hour, 24 hours, and 1 week after compound administration are as follows: for 0.1 mg/kg dose: 38.7% at 1 h, 34.5% at 24 h, and 19.7% at 1 wk; for 1 mg/kg dose: 24.1% at 1 h, 26.5% at 24 h, and 13.2% at 1 wk; and for 10 mg/kg dose: 61.2% at 1 h, 45.1% at 24 h, and 39.5% at 1 wk.

[4] = Plasma stability (Rat); type: in vitro ADME; settings: after 60 minutes
Method: (§5) Plasma stability of disclosed compounds was investigated. The following table indicates the percent of compound remaining after 60 minutes.

[5] = IV pharmacokinetics in rats; settings: Sprague Dawley, in vivo, rat, 2 mg/kg, normal saline; for Vd: read-out: Vss
Method: Sprague Dawley rats were dosed intravenously using a normal saline formulation containing 2 mg/kg of the compounds identified in the below table. The table below summarizes the results of the IV pharmacokinetics.

[6] = molecular target: T3, NMDAR2D (Homo sapiens, UniProt O15399); test: NMDAR agonist assay, [3H]MK-801 binding, NMDAR2D expressing HEK cell membranes; type: biochemical; settings: 50 μM glutamate
T3 construct: expressed in transfected cells; host or cells: HEK cells (membrane extract)
T3 sequence (O15399 28-1336, species assumed, other chains not shown): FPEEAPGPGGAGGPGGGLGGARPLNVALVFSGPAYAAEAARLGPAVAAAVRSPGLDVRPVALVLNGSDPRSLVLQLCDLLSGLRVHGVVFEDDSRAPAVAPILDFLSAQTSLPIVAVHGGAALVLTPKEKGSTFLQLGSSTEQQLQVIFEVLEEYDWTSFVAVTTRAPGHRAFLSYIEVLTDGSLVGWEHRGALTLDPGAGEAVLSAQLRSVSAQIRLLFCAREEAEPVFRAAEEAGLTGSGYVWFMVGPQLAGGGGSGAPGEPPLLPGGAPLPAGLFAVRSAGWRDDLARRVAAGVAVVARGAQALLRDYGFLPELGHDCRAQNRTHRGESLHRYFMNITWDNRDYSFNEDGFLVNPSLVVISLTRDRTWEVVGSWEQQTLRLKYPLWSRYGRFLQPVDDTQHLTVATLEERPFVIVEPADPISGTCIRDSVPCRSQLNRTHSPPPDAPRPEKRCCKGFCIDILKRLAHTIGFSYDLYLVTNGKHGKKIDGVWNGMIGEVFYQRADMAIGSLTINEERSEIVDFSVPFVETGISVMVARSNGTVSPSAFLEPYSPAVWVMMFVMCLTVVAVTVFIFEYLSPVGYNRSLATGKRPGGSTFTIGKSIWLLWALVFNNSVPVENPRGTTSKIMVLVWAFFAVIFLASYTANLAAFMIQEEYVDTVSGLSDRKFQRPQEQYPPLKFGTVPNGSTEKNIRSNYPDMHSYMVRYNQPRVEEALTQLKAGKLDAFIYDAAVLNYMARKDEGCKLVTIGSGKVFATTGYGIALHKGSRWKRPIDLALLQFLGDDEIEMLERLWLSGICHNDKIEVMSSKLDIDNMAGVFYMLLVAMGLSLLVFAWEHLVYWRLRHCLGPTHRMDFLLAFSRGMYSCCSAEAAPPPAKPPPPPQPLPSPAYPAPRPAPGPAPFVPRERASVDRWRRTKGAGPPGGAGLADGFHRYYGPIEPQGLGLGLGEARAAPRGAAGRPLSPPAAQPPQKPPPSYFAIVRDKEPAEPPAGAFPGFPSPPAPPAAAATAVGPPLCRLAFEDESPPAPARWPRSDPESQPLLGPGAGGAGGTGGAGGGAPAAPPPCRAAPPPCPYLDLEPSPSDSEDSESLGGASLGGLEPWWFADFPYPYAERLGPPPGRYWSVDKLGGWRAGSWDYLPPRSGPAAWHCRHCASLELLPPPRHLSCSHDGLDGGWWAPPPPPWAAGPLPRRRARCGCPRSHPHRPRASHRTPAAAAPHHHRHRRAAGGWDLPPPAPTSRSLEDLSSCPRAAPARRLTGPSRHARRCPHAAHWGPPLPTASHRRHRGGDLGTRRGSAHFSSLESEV
Method: as §1, §2, §3, §4

[7] = molecular target: T4, NMDAR2D (Homo sapiens, UniProt O15399+Q05586); test: as above; type: biochemical; settings: 50 μM glutamate, read-out: NMDAR2D B: log EC50 (converted)
T4 construct: expressed in transfected cells; host or cells: HEK cells (membrane extract)
T4 sequence (O15399 28-1336, species assumed, other chains not shown): as above
Method: as §1, §2, §3, §4

[8] = Microsomal stability (Rat); type: in vitro ADME; settings: rat microsomes, after 60 minutes
Method: (§6) Microsomal stability of disclosed compounds was investigated. The following table indicates the percent of compound remaining after 60 minutes.

[9] = Plasma stability (Human); type: in vitro ADME; settings: after 60 minutes
Method: as §5

[10] = Oral pharmacokinetics in rats (plasma, brain, CSF); type: in vivo, Sprague Dawley rats; settings: rat, oral gavage, 10 mg/kg; for bioavailability / AUC(0-t) / Cmax / Tmax: Sprague Dawley, plasma
Method: In another experiment, Sprague Dawley rats were dosed per os (oral gavage) using a normal saline formulation containing 10 mg/kg of the compounds identified in the table below. Plasma, brain, and CSF samples were analyzed at various time points over a 24 hour period. The table below summarizes the results of the oral pharmacokinetics, where the first three values (Tmax, Cmax and AUClast) are plasma values.

[11] = Microsomal stability (Human); type: in vitro ADME; settings: human microsomes, after 60 minutes
Method: as §6

Row | Structure (SMILES) | NMDAR2B A: % maximal [3H]MK-801 binding relative to 1 mM glycine [1] | EC50 [1] [nM] | NMDAR2A A: % maximal [3H]MK-801 binding relative to 1 mM glycine [2] | EC50 [2] [nM] | Plasma (Rat): percent of compound remaining [4] [%] | AUC(0-t) [5] [ng·h/mL] | Cmax [5] [ng/mL] | clearance [5] [mL/min/kg] | half-life [5] [h] | Vd [5] [L/kg] | Microsomal (Rat): percent of compound remaining [8] [%] | Plasma (Human): percent of compound remaining [9] [%] | bioavailability [10] [%] | AUC(0-t) [10] [ng·h/mL] | Cmax [10] [ng/mL] | Tmax [10] [h] | CSF Cmax [10] [ng/mL] | Brain Cmax [10] [ng/mL] | Microsomal (Human): percent of compound remaining [11] [%] | further results
1 | O=C1NCCCCC12CCNCC2 [AG, 3,8-diazaspiro[5.6]dodecan-7-one] | + (<100%=+) | < 1 | + (<100%=+) | < 1 |  |  |  |  |  |  |  |  |  |  |  |  |  |  |  | 
2 | NCC1(CC(=O)O)CCCCC1 [gabapentin, reference compound] |  |  |  |  |  |  |  |  |  |  |  |  |  |  |  |  |  |  |  | % analgesia ([3]; 1 week post-administration, control group of the study): under 5%; % analgesia ([3]; 1 wk, example (typical) control values): 0%; % analgesia ([3]; 1 h, example (typical) control values): 77%; % analgesia ([3]; 1 h post-administration, control group of the study): at least 50%; % analgesia ([3]; 24 h, example (typical) control values): 17%; % analgesia ([3]; 24 h post-administration, control group of the study): under 5%
3 | O=C(O)C(F)(F)F.O=C1NCCCC12CCNCC2 [AA, 2,9-diazaspiro[5.5]undecan-1-one] | + (<100%=+) | < 1 | − (−=0) |  | 84 | 1160 | 2660 | 28.4 | 2 | 1.76 | 91 | 97 | 18 | 1020 | 325 | 2.11 | 12 | 0 | 96 | NMDAR2D A: % maximal [3H]MK-801 binding relative to 1 mM glycine [6]: ++ (>100%=++); EC50 [7]: < 1 nM; NMDAR2A B: log EC50 [2]: −
4 | CC(C)(C)OC(=O)N1CCC2(CCCNC2=O)CC1 [AC, tert-butyl 1-oxo-2,9-diazaspiro[5.5]undecane-9-carboxylate] | + (<100%=+) | < 1 | + (<100%=+) | > 1 | 100 | 845 | 5660 | 39.5 | 0.12 | 0.31 | 96 | 100 | 44 | 1860 | 3630 | 0.25 | 261 | 298 | 100 | 
